Experimental data reported in ChEMBL document CHEMBL5705887, “Distinct concentration-dependent effects of the polo-like kinase 1-specific inhibitor GSK461364A, including differential effect on apoptosis” (Cancer Res, 2009).
The source made the active and inactive calls. The rule behind the calls is not given here.

Assays:
Jurkat = assay: Antiproliferative activity against human Jurkat cells assessed as growth inhibition incubated for 72 hrs by celltiter-glo assay; format: functional
A549 [1] = assay: Antimitotic activity against human A549 cells assessed as cell cycle block in G2-M phase measuring by accumulation of 4N DNA content at 10 nmol/L incubated for 24 hrs by PI staining based flow cytometric analysis; format: functional
NCI-H460 [2] = assay: Antiproliferative activity against human NCI-H460 cells assessed as viable cell signal at maximum growth inhibition incubated for 72 hrs by celltiter-glo assay relative to control; format: functional
T-24 = assay: Antiproliferative activity against human T24 cells assessed as growth inhibition incubated for 72 hrs by celltiter-glo assay; format: functional
DU-145 [3] = assay: Antiproliferative activity against human DU-145 cells assessed as viable cell signal at maximum growth inhibition incubated for 72 hrs by celltiter-glo assay relative to control; format: functional
NCI-H322M = assay: Antiproliferative activity against human NCI-H322M cells assessed as viable cell signal at maximum growth inhibition incubated for 72 hrs by celltiter-glo assay relative to control; format: functional
BT-549 = assay: Antiproliferative activity against human BT-549 cells assessed as of viable cell signal at minimum maximum cell growth incubated for 72 hrs by celltiter-glo assay relative to control; format: functional
[4] = target: Serine/threonine-protein kinase D1 (Homo sapiens) (UniProt Q15139); assay: Inhibition of recombinant human PKC-mu at 10 uM relative to control
Sequence of Serine/threonine-protein kinase D1 (Homo sapiens) (Q15139 whole entry): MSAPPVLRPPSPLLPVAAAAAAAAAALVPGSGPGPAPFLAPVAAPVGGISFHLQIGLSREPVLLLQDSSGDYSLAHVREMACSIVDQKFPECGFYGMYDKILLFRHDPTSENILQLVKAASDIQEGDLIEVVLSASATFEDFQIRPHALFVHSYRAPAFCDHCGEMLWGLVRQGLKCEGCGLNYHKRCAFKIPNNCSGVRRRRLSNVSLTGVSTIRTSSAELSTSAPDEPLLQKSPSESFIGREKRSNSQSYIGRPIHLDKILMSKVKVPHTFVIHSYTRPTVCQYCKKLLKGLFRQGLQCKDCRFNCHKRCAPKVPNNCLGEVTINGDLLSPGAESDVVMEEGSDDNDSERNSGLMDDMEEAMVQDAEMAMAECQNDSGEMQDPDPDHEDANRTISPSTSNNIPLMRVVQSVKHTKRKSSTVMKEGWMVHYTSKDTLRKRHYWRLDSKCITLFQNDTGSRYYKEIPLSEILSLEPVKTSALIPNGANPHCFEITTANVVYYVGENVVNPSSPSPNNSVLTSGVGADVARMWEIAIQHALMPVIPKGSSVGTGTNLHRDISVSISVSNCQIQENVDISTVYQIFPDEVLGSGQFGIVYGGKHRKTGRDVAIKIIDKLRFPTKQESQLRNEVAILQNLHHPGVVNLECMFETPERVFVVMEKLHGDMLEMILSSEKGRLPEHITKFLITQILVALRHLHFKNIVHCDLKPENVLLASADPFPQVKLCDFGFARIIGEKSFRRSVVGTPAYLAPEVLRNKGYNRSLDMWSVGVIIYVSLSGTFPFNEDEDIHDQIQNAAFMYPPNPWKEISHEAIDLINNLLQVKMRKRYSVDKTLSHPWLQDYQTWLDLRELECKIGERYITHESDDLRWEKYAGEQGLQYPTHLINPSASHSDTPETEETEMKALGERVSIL

Hep 3B2 = assay: Antiproliferative activity against human Hep3B cells assessed as viable cell signal at maximum growth inhibition incubated for 72 hrs by celltiter-glo assay relative to control; format: functional
HCT-15 = assay: Antiproliferative activity against human HCT-15 cells assessed as growth inhibition incubated for 72 hrs by celltiter-glo assay; format: functional
SK-MEL3 [5] = assay: Antiproliferative activity against human SK-MEL3 cells assessed as viable cell signal at maximum growth inhibition incubated for 72 hrs by celltiter-glo assay relative to control; format: functional
SW480 [6] = assay: Antiproliferative activity against human SW480 cells assessed as viable cell signal at maximum growth inhibition incubated for 72 hrs by celltiter-glo assay relative to control; format: functional
[7] = system: Platelet-derived growth factor receptor alpha (Homo sapiens), P16234 [V561D]; assay: Inhibition of N-terminal his6-tagged recombinant human PDGFRA V561D mutant at 10 uM relative to control
Sequence of Platelet-derived growth factor receptor alpha (Homo sapiens), P16234 [V561D] (P16234 whole entry V561D): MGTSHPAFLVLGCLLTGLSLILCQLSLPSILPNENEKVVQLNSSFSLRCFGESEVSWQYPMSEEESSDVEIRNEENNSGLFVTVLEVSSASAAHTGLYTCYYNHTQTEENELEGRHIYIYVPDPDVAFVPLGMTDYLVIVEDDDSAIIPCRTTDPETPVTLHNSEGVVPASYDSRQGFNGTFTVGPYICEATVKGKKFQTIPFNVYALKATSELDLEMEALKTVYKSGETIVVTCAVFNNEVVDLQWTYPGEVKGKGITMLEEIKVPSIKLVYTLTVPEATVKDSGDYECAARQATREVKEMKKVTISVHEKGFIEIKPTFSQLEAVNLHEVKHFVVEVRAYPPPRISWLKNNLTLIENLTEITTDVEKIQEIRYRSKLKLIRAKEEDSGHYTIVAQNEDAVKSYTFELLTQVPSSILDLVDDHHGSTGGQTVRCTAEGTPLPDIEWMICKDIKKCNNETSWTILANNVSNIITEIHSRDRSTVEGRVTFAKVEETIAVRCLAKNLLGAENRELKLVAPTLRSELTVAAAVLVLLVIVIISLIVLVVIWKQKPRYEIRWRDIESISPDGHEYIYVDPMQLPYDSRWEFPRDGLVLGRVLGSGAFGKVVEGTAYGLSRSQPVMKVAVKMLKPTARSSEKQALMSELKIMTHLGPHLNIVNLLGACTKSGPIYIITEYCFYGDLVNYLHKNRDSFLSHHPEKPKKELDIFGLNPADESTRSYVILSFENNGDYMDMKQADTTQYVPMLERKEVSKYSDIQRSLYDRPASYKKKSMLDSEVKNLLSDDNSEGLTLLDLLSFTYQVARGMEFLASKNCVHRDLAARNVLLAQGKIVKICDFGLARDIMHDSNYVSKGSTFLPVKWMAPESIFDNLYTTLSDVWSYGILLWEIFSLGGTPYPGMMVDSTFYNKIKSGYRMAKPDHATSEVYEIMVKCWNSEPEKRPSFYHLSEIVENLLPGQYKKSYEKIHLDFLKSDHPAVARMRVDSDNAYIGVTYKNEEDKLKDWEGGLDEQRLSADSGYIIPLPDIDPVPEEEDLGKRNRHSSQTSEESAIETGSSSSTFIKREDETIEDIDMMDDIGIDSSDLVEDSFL

SW480 [8] = assay: Antiproliferative activity against human SW480 cells assessed as growth inhibition incubated for 72 hrs by celltiter-glo assay; format: functional
SCLC = assay: Antiproliferative activity against human SCLC cells assessed as of viable cell signal at minimum maximum cell growth incubated for 72 hrs by celltiter-glo assay relative to control; format: functional
NCI-H157 = assay: Antiproliferative activity against human NCI-H157 cells assessed as growth inhibition incubated for 72 hrs by celltiter-glo assay; format: functional
ASPC1 = assay: Antiproliferative activity against human ASPC1 cells assessed as growth inhibition incubated for 72 hrs by celltiter-glo assay; format: functional
A2780 = assay: Antiproliferative activity against human A2780 cells assessed as growth inhibition incubated for 72 hrs by celltiter-glo assay; format: functional
U2OS = assay: Induction of mitotic arrest in human U2OS cells expressing fused cyclin B1-GFP at > 250 nmol/L incubated for 48 hrs by image based analysis; format: functional, cell-based
DU-145 [9] = assay: Antiproliferative activity against human DU-145 cells assessed as of viable cell signal at minimum maximum cell growth incubated for 72 hrs by celltiter-glo assay relative to control; format: functional
A549 [10] = assay: Antiproliferative activity against human A549 cells assessed as growth inhibition incubated for 72 hrs by celltiter-glo assay; format: functional
SK-MEL3 [11] = assay: Antiproliferative activity against human SK-MEL3 cells assessed as growth inhibition incubated for 72 hrs by celltiter-glo assay; format: functional
A-427 [12] = assay: Antiproliferative activity against human A-427 cells assessed as of viable cell signal at minimum maximum cell growth incubated for 72 hrs by celltiter-glo assay relative to control; format: functional
A-427 [13] = assay: Antiproliferative activity against human A-427 cells assessed as growth inhibition incubated for 72 hrs by celltiter-glo assay; format: functional
Calu-3 = assay: Antiproliferative activity against human Calu-3 cells assessed as growth inhibition incubated for 72 hrs by celltiter-glo assay; format: functional
MCF7 = assay: Antiproliferative activity against human MCF7 cells assessed as of viable cell signal at minimum maximum cell growth incubated for 72 hrs by celltiter-glo assay relative to control; format: functional
K562 = assay: Antiproliferative activity against human K562 cells assessed as of viable cell signal at minimum maximum cell growth incubated for 72 hrs by celltiter-glo assay relative to control; format: functional
ZR-75-1 [14] = assay: Growth inhibition of human ZR-75-1 cells assessed as caspase-3/caspase-7 activation at 0.1 nmol/L incubated for 5 to 7 days by […]; format: functional, cell-based; details: time 5-7 day
A-431 = assay: Antiproliferative activity against human A-431 cells assessed as growth inhibition incubated for 72 hrs by celltiter-glo assay; format: functional
A704 = assay: Antiproliferative activity against human A704 cells assessed as viable cell signal at maximum growth inhibition incubated for 72 hrs by celltiter-glo assay relative to control; format: functional
ZR-75-1 [15] = assay: Antiproliferative activity against human ZR-75-1 cells assessed as viable cell signal at maximum growth inhibition incubated for 72 hrs by celltiter-glo assay relative to control; format: functional
A549 [16] = assay: Induction of mitotic arrest in human A549 cells assessed as disordered spindle formation at 313 nmol/L incubated for 16 hrs by alpha-tubulin/DAPI staining based confocal microscopic analysis; format: functional, cell-based
ZR-75-1 [17] = assay: Antiproliferative activity against human ZR-75-1 cells assessed as of viable cell signal at minimum maximum cell growth incubated for 72 hrs by celltiter-glo assay relative to control; format: functional
SK-OV-3 = assay: Antiproliferative activity against human SK-OV-3 cells assessed as growth inhibition incubated for 72 hrs by celltiter-glo assay; format: functional
NCI-H82 = assay: Antiproliferative activity against human NCI-H82 cells assessed as growth inhibition incubated for 72 hrs by celltiter-glo assay; format: functional
A498 = assay: Antiproliferative activity against human A498 cells assessed as of viable cell signal at minimum maximum cell growth incubated for 72 hrs by celltiter-glo assay relative to control; format: functional
SJSA-1 = assay: Antiproliferative activity against human SJSA-1 cells assessed as viable cell signal at maximum growth inhibition incubated for 72 hrs by celltiter-glo assay relative to control; format: functional
HT-1080 [18] = assay: Antiproliferative activity against human HT-1080 cells assessed as viable cell signal at maximum growth inhibition incubated for 72 hrs by celltiter-glo assay relative to control; format: functional
RPMI-8226 = assay: Antiproliferative activity against human RPMI-8226 cells assessed as of viable cell signal at minimum maximum cell growth incubated for 72 hrs by celltiter-glo assay relative to control; format: functional
NCI-H460 [19] = assay: Antiproliferative activity against human NCI-H460 cells assessed as growth inhibition incubated for 72 hrs by celltiter-glo assay; format: functional
HT-1080 [20] = assay: Antiproliferative activity against human HT-1080 cells assessed as of viable cell signal at minimum maximum cell growth incubated for 72 hrs by celltiter-glo assay relative to control; format: functional
[21] = target: Calcium/calmodulin-dependent protein kinase type II subunit delta (Homo sapiens) (UniProt Q13557); assay: Inhibition recombinant human CAMKII-delta at 10 uM relative to control
Sequence of Calcium/calmodulin-dependent protein kinase type II subunit delta (Homo sapiens) (Q13557 whole entry): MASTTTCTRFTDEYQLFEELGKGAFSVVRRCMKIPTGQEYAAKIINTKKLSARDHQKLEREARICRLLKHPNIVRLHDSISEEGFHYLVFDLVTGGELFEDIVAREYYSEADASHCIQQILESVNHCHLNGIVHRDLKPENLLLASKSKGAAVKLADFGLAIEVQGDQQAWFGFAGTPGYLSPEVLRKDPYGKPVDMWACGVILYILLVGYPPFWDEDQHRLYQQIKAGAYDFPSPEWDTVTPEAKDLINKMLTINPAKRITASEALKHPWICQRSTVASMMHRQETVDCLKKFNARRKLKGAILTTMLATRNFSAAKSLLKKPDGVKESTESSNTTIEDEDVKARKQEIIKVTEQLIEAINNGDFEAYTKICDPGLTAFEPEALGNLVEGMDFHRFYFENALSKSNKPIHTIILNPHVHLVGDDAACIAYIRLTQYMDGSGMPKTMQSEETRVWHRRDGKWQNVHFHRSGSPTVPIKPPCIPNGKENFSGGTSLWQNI

HT-1080 [22] = assay: Antiproliferative activity against human HT-1080 cells assessed as growth inhibition incubated for 72 hrs by celltiter-glo assay; format: functional

**Q.** What does the source list for `C[C@@H](Oc1cc(-n2cnc3ccc(CN4CCN(C)CC4)cc32)sc1C(N)=O)c1ccccc1C(F)(F)F` [GSK-461364]?
**A.** GI50 (Jurkat): 18.6 nM; Activity (A549 [1]): Active; Emax (NCI-H460 [2]): 952%; GI50 (T-24): 42.3 nM; Emax (DU-145 [3]): 500%; Emax (NCI-H322M): 611%; Emin (BT-549): 77.2%; inhibition [4]: 53%; Emax (Hep 3B2): 220%; GI50 (HCT-15): 90.8 nM; Emax (SK-MEL3 [5]): 708%; Emax (SW480 [6]): 512%; inhibition [7]: 96%; GI50 (SW480 [8]): 130 nM; Emin (SCLC): 122%; GI50 (NCI-H157): 25.2 nM; GI50 (ASPC1): 22.3 nM; GI50 (A2780): 28.1 nM; Activity (U2OS): Active; Emin (DU-145 [9]): 69.1%; GI50 (A549 [10]): 34 nM; GI50 (SK-MEL3 [11]): 17.6 nM; Emin (A-427 [12]): 15.4%; GI50 (A-427 [13]): 22.8 nM; GI50 (Calu-3): 35.6 nM; Emin (MCF7): 125.4%; Emin (K562): 91.2%; Activity (ZR-75-1 [14]): Active; GI50 (A-431): 16.6 nM; Emax (A704): 255%; Emax (ZR-75-1 [15]): 229%; Activity (A549 [16]): Active; Emin (ZR-75-1 [17]): 133.6%; GI50 (SK-OV-3): 28.9 nM; GI50 (NCI-H82): 4.85 nM; Emin (A498): 243.2%; Emax (SJSA-1): 791%; Emax (HT-1080 [18]): 223%; Emin (RPMI-8226): 34.6%; GI50 (NCI-H460 [19]): 37.8 nM; Emin (HT-1080 [20]): 62.5%; inhibition [21]: 88%; GI50 (HT-1080 [22]): 24.6 nM
